{"source": "patent US20120122727A1", "about": "“IN VITRO METHOD FOR PREDICTING WHETHER A COMPOUND IS GENOTOXIC IN VIVO” (priority 2009, published 2012)", "key": {"[1]": {"test_system": "primary mouse hepatocytes", "test": "Gene expression (Affymetrix Mouse Genome 430 2.0) in primary mouse hepatocytes, true vs false GTX, 24 h and 48 h", "details": "48 h; log2, corrected for vehicle control"}, "[2]": {"test_system": "primary mouse hepatocytes"}}}
{"compound": "c1ccc2c(c1)cc1ccc3cccc4ccc2c1c34", "note": "[BaP, Benzo(a)pyrene]", "values": [{"measurement": "Gene expression AK007854 average", "setting": "[1]", "value": 1.6125}, {"measurement": "Gene expression AK010447 average", "setting": "[1]", "value": "−1.207"}, {"measurement": "Gene expression AK010738 average", "setting": "[1]", "value": 0.9112}, {"measurement": "Gene expression AK014608 average", "setting": "[1]", "value": 1.245}, {"measurement": "Gene expression AK017734 average", "setting": "[1]", "value": 0.7529}, {"measurement": "Gene expression AK018383 average", "setting": "[1]", "value": 1.273}, {"measurement": "Gene expression AK019979 average", "setting": "[1]", "value": "−1.0966"}, {"measurement": "Gene expression AV095209 average", "setting": "[1]", "value": "−0.7654"}, {"measurement": "Gene expression AV141095 average", "setting": "[1]", "value": "−1.4056"}, {"measurement": "Gene expression AV173869 average", "setting": "[1]", "value": "−1.924"}, {"measurement": "Gene expression AV216768 average", "setting": "[1]", "value": "−1.447"}, {"measurement": "Gene expression AV219418 average", "setting": "[1]", "value": 1.558}, {"measurement": "Gene expression AV221299 average", "setting": "[1]", "value": "−1.169"}, {"measurement": "Gene expression AV246296 average", "setting": "[1]", "value": 1.1524}, {"measurement": "Gene expression AV251625 average", "setting": "[1]", "value": 1.731}, {"measurement": "Gene expression AV254764 average", "setting": "[1]", "value": 1.48}, {"measurement": "Gene expression AV327248 average", "setting": "[1]", "value": 2.067}, {"measurement": "Gene expression BB009155 average", "setting": "[1]", "value": 0.784}, {"measurement": "Gene expression BB027848 average", "setting": "[1]", "value": 0.4738}, {"measurement": "Gene expression BB043558 average", "setting": "[1]", "value": 1.692}, {"measurement": "Gene expression BB046347 average", "setting": "[1]", "value": 0.7766}, {"measurement": "Gene expression BB140436 average", "setting": "[1]", "value": "−0.4572"}, {"measurement": "Gene expression BB204486 average", "setting": "[1]", "value": "−1.5693"}, {"measurement": "Gene expression BB223872 average", "setting": "[1]", "value": 1.1634}, {"measurement": "Gene expression BB246912 average", "setting": "[1]", "value": "−1.54"}, {"measurement": "Gene expression BB275142 average", "setting": "[1]", "value": 1.0559}, {"measurement": "Gene expression BB458460 average", "setting": "[1]", "value": "−1.384"}, {"measurement": "Gene expression BB463610 average", "setting": "[1]", "value": 1.672}, {"measurement": "Gene expression BB730977 average", "setting": "[1]", "value": 0.4218}, {"measurement": "Gene expression BB743970 average", "setting": "[1]", "value": 1.51}, {"measurement": "Gene expression BB770528 average", "setting": "[1]", "value": 0.7877}, {"measurement": "Gene expression BB781615 average", "setting": "[1]", "value": 0.9271}, {"measurement": "Gene expression BC003284 average", "setting": "[1]", "value": 0.7313}, {"measurement": "Gene expression BC004827 average", "setting": "[1]", "value": "−1.186"}, {"measurement": "Gene expression BC005552 average", "setting": "[1]", "value": "−0.2121"}, {"measurement": "Gene expression BC006713 average", "setting": "[1]", "value": 0.4721}, {"measurement": "Gene expression BC010318 average", "setting": "[1]", "value": "−0.5529"}, {"measurement": "Gene expression BC012247 average", "setting": "[1]", "value": 1.477}, {"measurement": "Gene expression BC012955 average", "setting": "[1]", "value": "−0.9445"}, {"measurement": "Gene expression BC013893 average", "setting": "[1]", "value": 1.04}, {"measurement": "Gene expression BC017615 average", "setting": "[1]", "value": "−2.234"}, {"measurement": "Gene expression BC019379 average", "setting": "[1]", "value": "−1.9807"}, {"measurement": "Gene expression BC019882 average", "setting": "[1]", "value": 2.16}, {"measurement": "Gene expression BC021352 average", "setting": "[1]", "value": 0.7052}, {"measurement": "Gene expression BC022148 average", "setting": "[1]", "value": 1.324}, {"measurement": "Gene expression BC025169 average", "setting": "[1]", "value": "−0.5114"}, {"measurement": "Gene expression BC026131 average", "setting": "[1]", "value": "−1.045"}, {"measurement": "Gene expression BC027026 average", "setting": "[1]", "value": 1.379}, {"measurement": "Gene expression BC027121 average", "setting": "[1]", "value": 1.345}, {"measurement": "Gene expression BC027185 average", "setting": "[1]", "value": 0.7081}, {"measurement": "Gene expression BE956581 average", "setting": "[1]", "value": 1.451}, {"measurement": "Gene expression BF719766 average", "setting": "[1]", "value": 0.9507}, {"measurement": "Gene expression BG065754 average", "setting": "[1]", "value": 0.9746}, {"measurement": "Gene expression BG066491 average", "setting": "[1]", "value": "−2.098"}, {"measurement": "Gene expression BG076151 average", "setting": "[1]", "value": 0.7599}, {"measurement": "Gene expression BG076333 average", "setting": "[1]", "value": "−0.4091"}, {"measurement": "Gene expression BG797099 average", "setting": "[1]", "value": 1.8809}, {"measurement": "Gene expression BG967046 average", "setting": "[1]", "value": 0.5936}, {"measurement": "Gene expression BI651416 average", "setting": "[1]", "value": 1.9573}, {"measurement": "Gene expression BI966443 average", "setting": "[1]", "value": 1.3186}, {"measurement": "Gene expression BM198879 average", "setting": "[1]", "value": 0.8089}, {"measurement": "Gene expression BM200015 average", "setting": "[1]", "value": 1.0174}, {"measurement": "Gene expression BM230508 average", "setting": "[1]", "value": 1.158}, {"measurement": "Gene expression BM936480 average", "setting": "[1]", "value": 3.0213}, {"measurement": "Gene expression BQ174991 average", "setting": "[1]", "value": "−1.408"}, {"measurement": "Gene expression L21027 average", "setting": "[1]", "value": "−1.779"}, {"measurement": "Gene expression NM_007556 average", "setting": "[1]", "value": "−1.089"}, {"measurement": "Gene expression NM_007980 average", "setting": "[1]", "value": 1.753}, {"measurement": "Gene expression NM_007987 average", "setting": "[1]", "value": 1.353}, {"measurement": "Gene expression NM_008522 average", "setting": "[1]", "value": 2.9351}, {"measurement": "Gene expression NM_008935 average", "setting": "[1]", "value": "−1.4799"}, {"measurement": "Gene expression NM_009897 average", "setting": "[1]", "value": 1.182}, {"measurement": "Gene expression NM_011075 average", "setting": "[1]", "value": 1.198}, {"measurement": "Gene expression NM_011176 average", "setting": "[1]", "value": 1.4287}, {"measurement": "Gene expression NM_011316 average", "setting": "[1]", "value": 0.8735}, {"measurement": "Gene expression NM_012006 average", "setting": "[1]", "value": 2.867}, {"measurement": "Gene expression NM_013642 average", "setting": "[1]", "value": "−1.442"}, {"measurement": "Gene expression NM_013738 average", "setting": "[1]", "value": 0.9012}, {"measurement": "Gene expression NM_013929 average", "setting": "[1]", "value": 1.062}, {"measurement": "Gene expression NM_018881 average", "setting": "[1]", "value": 3.369}, {"measurement": "Gene expression NM_019738 average", "setting": "[1]", "value": "−2.586"}, {"measurement": "Gene expression NM_030697 average", "setting": "[1]", "value": 1.3687}, {"measurement": "Gene expression NM_053122 average", "setting": "[1]", "value": "−1.795"}, {"measurement": "Gene expression NM_134147 average", "setting": "[1]", "value": "−1.2396"}, {"measurement": "Gene expression NM_134188 average", "setting": "[1]", "value": 0.2884}, {"measurement": "Gene expression X62701 average", "setting": "[1]", "value": "−1.2338"}, {"measurement": "Gene expression data AF204959 (Cyp3a25 /// LOC622249)", "setting": "[2]", "value": 0.3057}]}
